Assay results: PubChem BioAssay AID651630 (Sanford-Burnham Center for Chemical Genomics, 2012)
Active and inactive are the calls of the source.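 Rule for the calls: active = lipid-stain IC50 at or below a set limit, with nuclear-stain toxicity IC50 at least five times higher; inactive = the rest.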

What was measured:
TAG = TAG lipid buildup inhibition with viability readout – cell-based, panel, Nile Red and DAPI fluorescence, H9c2, dose response (AID 651630); conditions: H9c2 cells, Nile Red TAG fluorescence, oleic acid;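 note: cells exposed to compound overnight before fixation and staining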
DAPI = test: as above; conditions: H9c2 cells, DAPI nuclear fluorescence (cytotoxicity counter-readout), oleic acid

| SMILES | IC50 (TAG; mean of runs) | IC50 (TAG; run 1) | IC50 (TAG; run 2) | IC50 cytotoxicity (DAPI nuclear signal decrease) (DAPI; mean of runs) | IC50 cytotoxicity (DAPI nuclear signal decrease) (DAPI; run 1) | IC50 cytotoxicity (DAPI nuclear signal decrease) (DAPI; run 2) |
| --- | --- | --- | --- | --- | --- | --- |
| COC(=O)[C@]1(Cc2ccccc2)N[C@H](c2ccc(-c3cccc(Cl)c3)c(OC)c2)[C@@H]2C(=O)N(C)C(=O)[C@@H]21 | > 25 µM (inactive) | > 25 µM | > 25 µM | > 25 µM (inactive) | > 25 µM | > 25 µM |
| Cc1ccc2nc3n(c(=O)c2c1)-c1cc2ccccc2cc1C(=O)NC3Cc1ccc(O)cc1 (centres undefined) |  | 24.9 µM | > 25 µM | > 25 µM (inactive) | > 25 µM | > 25 µM |
| CC(=O)O[C@H]1C(=O)[C@]2(C)[C@H]([C@H](OC(=O)c3ccccc3)[C@]3(O)C[C@H](OC(=O)[C@H](O)[C@@H](NC(=O)c4ccccc4)c4ccccc4)C(C)=C1C3(C)C)[C@]1(OC(C)=O)CO[C@@H]1C[C@@H]2O | > 25 µM (inactive) | > 25 µM | > 25 µM | > 25 µM (inactive) | > 25 µM | > 25 µM |
| Cc1ccc(C(=O)NCCN2C3=NC[C@H](C(C)C)N3C[C@H]2Cc2ccc(O)cc2)cc1Br | 16.8 µM (inactive) | 16.9 µM | 16.7 µM | > 25 µM (inactive) | > 25 µM | > 25 µM |
| O=C(Nc1cccc2ncccc12)c1ccc(Cl)cc1 | 6.22 µM | 6.27 µM | 6.17 µM | > 25 µM (inactive) | > 25 µM | > 25 µM |
| O=C(NCc1nnnn1-c1ccc(F)cc1)c1ccc([N+](=O)[O-])o1 | 18.9 µM (inactive) | 21.7 µM | 16 µM | 11.8 µM (inactive) | 11.8 µM | 11.9 µM |
| O=C(Cc1n[nH]c(=O)c2ccccc12)OCC(=O)c1ccc2c(c1)OCCO2 | > 25 µM (inactive) | > 25 µM | > 25 µM | > 25 µM (inactive) | > 25 µM | > 25 µM |
| O=C1c2ccccc2C(=O)c2c1ccc(C(=O)N1CCCCC1)c2NCCO | 3.42 µM | 3.47 µM | 3.38 µM |  | > 25 µM | > 25 µM |
| O=C1CCCC2=C1C1(CCCC1)N=C(Nc1nc3cc(-c4ccccc4)ccc3o1)N2 | 17.5 µM (inactive) | 15.5 µM | 19.5 µM | > 25 µM (inactive) | > 25 µM | > 25 µM |
| COCCN1Cc2cccc(C(=O)Nc3cccc(-c4nc5ccccc5[nH]4)c3)c2C1=O | 1.96 µM | 1.26 µM | 2.66 µM |  | > 25 µM | > 25 µM |
| CCc1cc2c3c(c1)C1(C(=O)N3C(C)(C)C=C2C)C(C#N)=C(N)Oc2[nH]c(=O)[nH]c(=O)c21 (centres undefined) | > 25 µM (inactive) | > 25 µM | > 25 µM | > 25 µM (inactive) | > 25 µM | > 25 µM |
| COc1cc(C#Cc2c(-c3cncn3C)n(C)c3ccc(-c4cnc(N5CCOCC5)nc4)cc23)cc(OC)c1 | 11 µM | 14.3 µM | 7.65 µM | > 25 µM (inactive) | > 25 µM | > 25 µM |
| CCOc1cc(N2CCOCC2)c(OCC)cc1NC(=O)CC12CC3CC(CC(C3)C1)C2 |  | 22.4 µM | > 25 µM | > 25 µM (inactive) | > 25 µM | > 25 µM |
